Source: ChEMBL document CHEMBL4665751, “Discovery of Clinical Candidate (5-(3-(4-Chlorophenoxy)prop-1-yn-1-yl)-3-hydroxypicolinoyl)glycine, an Orally Bioavailable Prolyl Hydroxylase Inhibitor for the Treatment of Anemia” (J Med Chem, 2020)
The source made the active and inactive calls. No cut-off for these calls is given here.

How the values were obtained:
[1] = organism: Homo sapiens; assay: Selectivity index, ratio of IC50 for KDM4A (unknown origin) in presence of peptide substrate incubated for 30 mins by alpha screen assay to IC50 for PHD2 (unknown origin) by O-phenyl enediamine(OPD) based fluorescence assay
[2] = Genotoxicity in Salmonella typhimurium TA98 at 62.5 to 1000 ug incubated for 48 to 50 hrs in presence of S9 fraction by Ames test; format: toxicity, subcellular, Salmonella enterica subsp. enterica serovar Typhimurium; details: dose 62.5-1000 µg, time 48-50 hrs
[3] = Intrinsic clearance in mouse liver microsome at 1 uM preincubated for 5 mins followed by NADPH addition measured up to 120 mins by LC-MS/MS analysis; format: ADME; details: microsomes, 2 h, time <=125 min
[4] = MRT (0 to infinity) in Sprague-Dawley rat at 1 mg/kg, iv by LC-MS/MS analysis; format: ADME, organism-based; details: in vivo
[5] = system: Hep 3B2; assay: Cytotoxicity against human Hep3B cells assessed as reduction in cell viability at 10 to 100 uM incubated for 72 hrs by MTT assay; format: cell-based; details: hep 3b2, 72 h, dose 10-100 µM
[6] = Clearance in Beagle dog at 0.5 mg/kg, iv by LC-MS/MS analysis; format: ADME, organism-based, Canis lupus familiaris; details: in vivo
[7] = Hepatotoxicity in male Sprague-Dawley rat assessed as change in aspartate aminotransferase level in blood at 200 mg/kg, po administered every alternate days for 2 weeks measured on day 14; format: toxicity, organism-based; details: in vivo, 336 h, time 14 day
[8] = target: T1, Egl nine homolog 1 (Homo sapiens, UniProt Q9GZT9); assay: Inhibition of PHD2 in human MCF7 cells assessed as upregulation of HIFalpha expression at 25 uM incubated for 24 hrs by firefly/renilla luciferase reporter gene assay relative to control; format: cell-based
T1 sequence (Q9GZT9 2-426 limits assumed): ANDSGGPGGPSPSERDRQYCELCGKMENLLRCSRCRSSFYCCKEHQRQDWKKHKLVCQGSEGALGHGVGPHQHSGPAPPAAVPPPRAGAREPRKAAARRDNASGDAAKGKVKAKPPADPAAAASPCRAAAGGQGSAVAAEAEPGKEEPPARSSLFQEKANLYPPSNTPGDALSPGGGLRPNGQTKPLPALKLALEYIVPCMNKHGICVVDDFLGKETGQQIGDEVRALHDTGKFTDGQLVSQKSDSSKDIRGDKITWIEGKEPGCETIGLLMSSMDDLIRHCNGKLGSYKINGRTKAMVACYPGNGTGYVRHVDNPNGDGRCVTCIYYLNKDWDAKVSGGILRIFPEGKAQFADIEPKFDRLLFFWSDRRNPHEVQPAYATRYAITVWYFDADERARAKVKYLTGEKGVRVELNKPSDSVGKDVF

[9] = Oral bioavailability in Beagle dog at 2 mg/kg by LC-MS/MS analysis; format: ADME, organism-based, Canis lupus familiaris; details: in vivo
[10] = Clearance in Sprague-Dawley rat at 2 mg/kg, ig by LC-MS/MS analysis; format: ADME, organism-based; details: in vivo, po
[11] = Acute toxicity in Sprague-Dawley rat assessed as change in ratio of liver to body weight at 15 to 200 mg/kg, po administered every alternate days for 2 weeks measured on day 14; format: organism-based; details: in vivo, 336 h, dose 15-200 mg/kg, time 14 day
[12] = Acute toxicity in male Sprague-Dawley rat assessed as increase in weight of spleen to body weight at 15 to 200 mg/kg, po administered every alternate days for 2 weeks measured on day 14; format: organism-based; details: in vivo, 336 h, dose 15-200 mg/kg, time 14 day
[13] = Acute toxicity in Sprague-Dawley rat assessed as change in ratio of heart to body weight at 15 to 200 mg/kg, po administered every alternate days for 2 weeks measured on day 14; format: organism-based; details: in vivo, 336 h, dose 15-200 mg/kg, time 14 day
[14] = system: Mus musculus; assay: In vivo inhibition of PHD2 in C57BL/6 mouse assessed as upregulation of EPO plasma level by measuring EPO level at 15 mg/kg, po measured after 4 hrs by ELISA; format: functional, organism-based
[15] = Half-life in Beagle dog at 2 mg/kg, ig by LC-MS/MS analysis; format: ADME, organism-based, Canis lupus familiaris; details: in vivo, po
[16] = AUC (0 to infinity) in Sprague-Dawley rat at 1 mg/kg, iv by LC-MS/MS analysis; format: ADME, organism-based; parameters: time infinity, route intravenous, dose 1 mg/kg; details: in vivo
[17] = Clearance in Beagle dog at 2 mg/kg, ig by LC-MS/MS analysis; format: ADME, organism-based, Canis lupus familiaris; details: in vivo, po
[18] = Apparent volume of distribution in Beagle dog at 0.5 mg/kg, iv by LC-MS/MS analysis; format: ADME, organism-based, Canis lupus familiaris; details: in vivo, read-out: Vz
[19] = target: T2, Cytochrome P450 1A2 (Homo sapiens, UniProt P05177); assay: Inhibition of CYP1A2 (unknown origin) using phenacetin as substrate preincubated for 5 mins followed by addition of NADPH measured after 20 mins by LC-MS/MS analysis; format: ADME
T2 sequence (P05177 whole entry): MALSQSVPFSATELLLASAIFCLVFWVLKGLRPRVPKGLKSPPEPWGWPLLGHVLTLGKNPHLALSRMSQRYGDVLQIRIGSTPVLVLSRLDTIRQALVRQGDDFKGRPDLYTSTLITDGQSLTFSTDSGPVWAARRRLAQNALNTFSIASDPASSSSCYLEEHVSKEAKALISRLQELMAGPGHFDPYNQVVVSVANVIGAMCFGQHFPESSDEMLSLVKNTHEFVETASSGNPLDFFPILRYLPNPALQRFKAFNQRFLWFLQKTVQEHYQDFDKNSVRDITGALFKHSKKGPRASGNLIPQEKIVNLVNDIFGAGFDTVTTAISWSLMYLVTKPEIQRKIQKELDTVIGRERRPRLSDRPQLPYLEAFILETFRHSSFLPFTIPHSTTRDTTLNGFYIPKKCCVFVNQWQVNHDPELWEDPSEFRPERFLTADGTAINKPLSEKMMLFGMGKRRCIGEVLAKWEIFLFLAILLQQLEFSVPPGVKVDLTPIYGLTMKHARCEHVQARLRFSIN

[20] = Half-life in human liver microsome at 1 uM preincubated for 5 mins followed by NADPH addition measured up to 120 mins by LC-MS/MS analysis; format: ADME; details: liver microsomes, time <=125 min
[21] = AUC (0 to t) in Sprague-Dawley rat at 2 mg/kg, ig by LC-MS/MS analysis; format: ADME, organism-based; parameters: dose 2 mg/kg; details: in vivo, po
[22] = target: T1, Egl nine homolog 1; assay: Inhibition of PHD2 in human Hep3B cells assessed as upregulation of EPO mRNA expression at 50 uM measured after 10 hrs by Trizol reagent based qRT-PCR analysis relative to control; format: cell-based

## O=C(O)CNC(=O)c1ncc(C#CCOc2ccc(Cl)cc2)cc1O [DDO-3055]
[1]
  Ratio IC50: 1560
[2]
  Activity: Non-Toxic
[3]
  CLH: < 0.01 mL/min/kg
[4]
  MRT inf: 3.44 h
[5]
  Activity: Non-Toxic
[6]
  clearance: 13.2 mL/min/kg
[7]
  Activity: Toxic
[8]
  fold change (FC): 4
[9]
  bioavailability: 54%
[10]
  CL/F: 7.3 mL/min/kg
[11]
  Activity: Non-Toxic
[12]
  Activity: Toxic
[13]
  Activity: Non-Toxic
[14]
  inhibition: Active
[15]
  half-life: 4.19 h
[16]
  AUC(0-inf): 4860 ng·h/mL
[17]
  CL/F: 25.5 mL/min/kg
[18]
  Vd: 3.34 L/kg
[19]
  IC50: > 30 µM
[20]
  half-life at 1 µM: > 2.32 h
[21]
  AUC(0-t): 4800 ng·h/mL
[22]
  fold change (FC): 7
